Laboratory results reported in PubChem BioAssay (NCI).
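48-hour exposure; five concentrations; linearly interpolated endpoints. GI50 marks 50% less growth. Definition used: TGI = concentration required for complete inhibition of growth.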

Columns and labels:
Assay in all cases: NCI anticancer screen, dose series, 48 h
[1] = test system: HCC-2998 colon
[2] = test system: MDA-MB-435
[3] = test system: SK-MEL-5 melanoma
[4] = test system: MDA-MB-231 breast
[5] = test system: HOP-62 NSCLC
[6] = test system: OVCAR-3 ovarian
[7] = test system: UACC-62 melanoma
[8] = test system: SK-OV-3 ovarian
[9] = test system: MALME-3M melanoma
[10] = test system: SNB-75 CNS
[11] = test system: HOP-92 NSCLC
[12] = test system: 786-0 renal
[13] = test system: SF-268 CNS
[14] = test system: NCI-H23 lung
[15] = test system: HCT-116 colon
[16] = test system: COLO 205 colon
[17] = test system: M14 melanoma
[18] = test system: A498 renal
[19] = test system: T-47D breast
[20] = test system: CAKI-1 renal
[21] = test system: NCI-H522 lung
[22] = test system: NCI-H226 lung
[23] = test system: NCI/ADR-RES ovarian
[24] = test system: SK-MEL-28 melanoma
[25] = test system: ACHN renal
[26] = test system: SK-MEL-2 melanoma
[27] = test system: NCI-H460 lung
[28] = test system: LOX IMVI melanoma
[29] = test system: SF-295 CNS
[30] = test system: A549 NSCLC
[31] = test system: SW-620 colon
[32] = test system: KM12 colon
[33] = test system: IGROV1 ovarian
[34] = test system: OVCAR-5 ovarian
[35] = test system: MDA-MB-468 breast
[36] = test system: SNB-19 CNS
[37] = test system: OVCAR-4 ovarian
[38] = test system: EKVX NSCLC
[39] = test system: U251 CNS
[40] = test system: DU-145 prostate
[41] = test system: TK-10 renal
[42] = test system: HT29 colon
[43] = test system: RPMI-8226 leukemia
[44] = test system: OVCAR-8 ovarian
[45] = test system: SN12C renal
[46] = test system: UO-31 renal
[47] = test system: MOLT-4 leukemia
[48] = test system: PC-3 prostate
[49] = test system: HCT-15 colon
[50] = test system: SF-539 CNS
[51] = test system: MCF7 breast
[52] = test system: UACC-257 melanoma
[53] = test system: BT-549 breast
[54] = test system: HL-60(TB) leukemia
[55] = test system: HS 578T breast
[56] = test system: K-562 leukemia
[57] = test system: SR leukemia
[58] = test system: CCRF-CEM leukemia
[59] = test system: RXF 393 renal

For `O=C(Cc1ccc2c(c1)CN(C1CCC(=O)NC1=O)C2=O)NCc1cccc2ccccc12` (configuration not stated), the GI50 [1] was < 10 nM, the TGI [1] was < 10 nM and the GI50 [2] was < 10 nM. The TGI [2] was 163 nM, the GI50 [3] was < 10 nM and the TGI [3] was < 11.9 nM. The GI50 [4] was < 10 nM, the TGI [4] was < 10 nM and the GI50 [5] was < 10 nM. The TGI [5] was < 32.1 nM, the GI50 [6] was 25.9 nM and the TGI [6] was 1170 nM. For the same compound, the GI50 [7] was 40.3 nM, the TGI [7] was 1420 nM and the GI50 [8] was < 10 nM. For the same compound, the TGI [8] was 147 nM, the GI50 [9] was < 10 nM and the TGI [9] was < 10 nM. The GI50 [10] was < 10 nM, the TGI [10] was < 12 nM and the GI50 [11] was < 10 nM. For the same compound, the TGI [11] was < 10 nM, the GI50 [12] was < 10 nM and the GI50 [13] was < 10 nM. It also gave a TGI [13] of 260 nM, a GI50 [14] of 88.6 nM and a TGI [14] of 3990 nM. The GI50 [15] was 54.6 nM, the TGI [15] was > 100000 nM and the GI50 [16] was < 10 nM. The TGI [16] was < 10 nM, the GI50 [17] was < 10 nM and the TGI [17] was 33.4 nM. The GI50 [18] was < 10 nM, the TGI [18] was 72.8 nM and the GI50 [19] was < 10 nM. For the same compound, the TGI [19] was < 10 nM, the GI50 [20] was < 10 nM and the TGI [20] was 6380 nM. The GI50 [21] was 29.1 nM, the TGI [21] was 351 nM and the GI50 [22] was < 10 nM. For the same compound, the TGI [22] was 41 nM, the GI50 [23] was 300 nM and the TGI [23] was 3080 nM. For the same compound, the GI50 [24] was < 11.4 nM, the TGI [24] was 189 nM and the GI50 [25] was 52.6 nM. The TGI [25] was 904 nM, the GI50 [26] was < 10 nM and the TGI [26] was 19.2 nM. The GI50 [27] was 5170 nM, the TGI [27] was > 100000 nM and the GI50 [28] was 41.5 nM. The TGI [28] was 2510 nM, the GI50 [29] was < 10 nM and the TGI [29] was 129 nM. The GI50 [30] was 14.6 nM, the TGI [30] was > 100000 nM and the GI50 [31] was < 10 nM. For the same compound, the GI50 [32] was < 10 nM, the TGI [32] was 461 nM and the GI50 [33] was < 10 nM. The TGI [33] was < 15.7 nM, the GI50 [34] was < 10 nM and the TGI [34] was 40.9 nM. For the same compound, the GI50 [35] was < 10 nM, the TGI [35] was < 10 nM and the GI50 [36] was < 10 nM. The TGI [36] was 74.2 nM, the GI50 [37] was < 10 nM and the TGI [37] was 46 nM. The GI50 [38] was < 22.4 nM, the GI50 [39] was 39.4 nM and the TGI [39] was > 100000 nM. The GI50 [40] was 38.8 nM, the GI50 [41] was < 16.9 nM and the TGI [41] was 751 nM. For the same compound, the GI50 [42] was 10.2 nM, the TGI [42] was 108 nM and the GI50 [43] was < 11.3 nM. The TGI [43] was > 100000 nM, the GI50 [44] was < 10 nM and the GI50 [45] was < 10 nM. The TGI [45] was 88.2 nM, the GI50 [46] was < 11.5 nM and the TGI [46] was 87.7 nM. For the same compound, the GI50 [47] was < 10 nM, the TGI [47] was > 100000 nM and the GI50 [48] was < 10 nM. The TGI [48] was 177 nM, the GI50 [49] was < 10 nM and the TGI [49] was 114 nM. For the same compound, the GI50 [50] was < 10.3 nM, the TGI [50] was 114 nM and the GI50 [51] was < 10 nM. The TGI [51] was > 33300 nM, the GI50 [52] was 350 nM and the TGI [52] was > 100000 nM. For the same compound, the GI50 [53] was < 10 nM, the TGI [53] was < 10 nM and the GI50 [54] was < 10 nM. For the same compound, the GI50 [55] was < 10 nM, the TGI [55] was < 17.9 nM and the GI50 [56] was < 10 nM. For the same compound, the TGI [56] was > 100000 nM, the GI50 [57] was 92.9 nM and the TGI [57] was > 100000 nM. For the same compound, the GI50 [58] was < 10 nM, the TGI [58] was 105 nM and the GI50 [59] was < 10 nM. The TGI [59] was 25.7 nM.
